# Experimental data published in patent US12030877B2, “Prostaglandin E synthase inhibitors and methods for utilizing the same” (University of Kentucky Research Foundation, priority 2016, dated 2024).
# Where two headings read alike, the source gives them in different places.
# Assays:
# mPGES-1 [1] = biological target: T1, mPGES-1 (Homo sapiens, UniProt O14684); details: background, cited from earlier work
# T1 sequence (O14684 1-152): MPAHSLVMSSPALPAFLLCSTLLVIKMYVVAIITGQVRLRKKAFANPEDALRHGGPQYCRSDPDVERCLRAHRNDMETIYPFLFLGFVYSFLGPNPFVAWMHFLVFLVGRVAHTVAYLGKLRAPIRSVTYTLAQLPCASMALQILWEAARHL
# mPGES-1 [2] = biological target: T1, mPGES-1; assay: mPGES-1 enzyme activity assay (PGE2 enzyme immunoassay), human enzyme; type: biochemical; set-up: made in house; host or cells: FreeStyle 293-F cells, crude microsomal preparation; details: recombinant microsomal enzyme; means ± SD, triplicate; read-out: IC50 against mPGES-1, Human enzyme
# Procedure, shortened: (§1)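 Crude microsomal enzyme from transfected FreeStyle 293-F cells, preincubated 15 min at room temperature with compound in phosphate pH 7.2 with GSH. Reaction started with 1 μM PGH2, stopped after 30 s with SnCl2; non-enzymatic background without enzyme. PGE2 by enzyme immunoassay; IC50 computed.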
# mPGES-1 Mouse enzyme = biological target: T2, mPGES-1 Mouse enzyme (Mus musculus, UniProt Q9JM51); assay: mPGES-1 enzyme activity assay (PGE2 enzyme immunoassay), mouse enzyme; type: biochemical; details: compound at a concentration of 10 μM; read-out: % inhibition of the compound against mPGES-1, Mouse enzyme
# T2 construct: made in house; host or cells: FreeStyle 293-F cells, crude microsomal preparation
# T2 sequence (Q9JM51 1-153): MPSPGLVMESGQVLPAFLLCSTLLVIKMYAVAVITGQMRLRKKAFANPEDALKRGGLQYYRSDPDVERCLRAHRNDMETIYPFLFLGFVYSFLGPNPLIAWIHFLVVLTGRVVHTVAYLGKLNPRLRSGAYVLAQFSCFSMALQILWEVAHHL
# Procedure, shortened: as §1
SMILES,"IC50 (mPGES-1 [1]; literature refs 20-22, read-out: IC50 for inhibition of mPGES-1) [nM]","IC50 for inhibition of mPGES-1 (in words) (mPGES-1 [1]; literature ref 20, probably competing with glutathione)",IC50 (mPGES-1 [2]) [nM],inhibition at 10 µM (mPGES-1 Mouse enzyme) [%]
CSc1ccc(/C=C2/C(C)=C(CC(=O)O)c3cc(F)ccc32)cc1,80000,–,–,–
CCCCC/C=C\C\C=C/C=C/C=C/[C@@H](SC[C@H](NC(=O)CC[C@H](N)C(=O)O)C(=O)NCC(=O)O)[C@@H](O)CCCC(=O)O [Leukotriene C4],–,micromolar,–,–
CCCCOc1ccc(-c2nn(-c3ccc(Cl)cc3)cc2/C=C(/C#N)C(=O)O)cc1 [VII-14],–,–,190 ± 68,30
CCCCCCOc1ccc(-c2nn(-c3ccc(Cl)cc3)cc2/C=C(/C#N)C(=O)O)cc1 [VII-15],–,–,83 ± 30,48
CCCCCCCCOc1ccc(-c2nn(-c3ccccc3)cc2/C=C(/C#N)C(=O)O)cc1 [VII-16],–,–,209 ± 42,46
CCCCCCCCOc1ccc(-c2nn(-c3ccc(Cl)cc3)cc2/C=C(/C#N)C(=O)O)cc1 [VII-17],–,–,90 ± 15,29
CCCCCCCCCCOc1ccc(-c2nn(-c3ccccc3)cc2/C=C(/C#N)C(=O)O)cc1 [VII-18],–,–,197 ± 32,4.3
CCCCCCCCCCOc1ccc(-c2nn(-c3ccc(Cl)cc3)cc2/C=C(/C#N)C(=O)O)cc1 [VII-19],–,–,97 ± 15,4.6
N#C/C(=C/c1cn(-c2ccccc2)nc1-c1ccc(OCc2ccccc2)cc1)C(=O)O [VII-20],–,–,806 ± 162,16
